Here are results for one substance from publication PMC10861593, “Kisspeptin-10 binding to Gpr54 in osteoclasts prevents bone loss by activating Dusp18-mediated dephosphorylation of Src” (Nature Communications, 2024).

Assay [1] relates to DUSP18, Src, and GPR54 complex. In words: Co-IP: DUSP18, Src and GPR54 heterotrimer complex formation in transfected 293T cells. Format: cell-based. To be noted: 293T with HA-Src, GPR54-Myc, DUSP18 (C104S)-Flag, Kp-10 20 min. The procedure: Anti-Flag IP derived from 293 T cells transfected with HA-Src and either DUSP18-Flag or DUSP18 (C104S)-Flag constructs with or without Kp-10 treatment for 20 min were lysed and subjected to anti-FLAG IP (b). Phosphatase reaction products using His-DUSP18 and His-DUSP18 (C104S) proteins purified from E. coli and SRC proteins purified from Sf9 insect cells (c) and quantification of protein levels (d). Anti-Src IP derived from RAW264.7 cells treated with or without Kp-10 treatment for 20 min were lysed and subjected to anti-Src IP (e) and quantification of protein levels (f). g, h Src and Dusp18 co-localization was analyzed by IF staining in primary pre-osteoclasts treated with 10 nM Kp-10 treatment for 20 min. Representative images of endogenous Dusp18 and Src were shown by TIRF microscopy (g), and MOC was used to quantify the degree of colocalization in cells from multiple images taken randomly (h). Scale bar, 50 µm. i–m IB and quantification of protein levels analysis. Anti-Flag IP derived from 293 T cells transfected with HA-Src, GPR54-myc, and either DUSP18-Flag or DUSP18 (C104S)-Flag constructs after Kp-10 treatment for 20 min (i) and quantification of protein levels (j, k). […] Scale bars, 125 µm (n), and pits depth were quantified by confocal microscopy (o). […] P values were determined by one-way ANOVA analysis (d, f, j, k, m, o) or by two-tailed Student’s t-test (h). […]

Assay [2] deals with Src (Y416). In words: IB of Src (Y416) phosphorylation in BMMs / osteoclasts. Format: cell-based, mouse. To be noted: for Src phosphorylation: Kp-10 20 min; for phosphorylation of Src (Y416): indicated dose of Kp-10 for 1 h; for phosphorylation of Src: Kp-10 1 h. As to the method:
Fig. 1 Kp-10 /Gpr54 governs osteoclasts formation and bone resorption mainly via suppression of Src phosphorylation. a–d IB analysis of whole cell lysates (WCL) derived from BMMs isolated from eight-week-old wild-type (WT) and Gpr54^−/− mice. BMMs were starved in serum-free α-MEM for 4 h and then treated with 100 ng/mL RANKL for different time (a) and quantification of protein levels (b), incubated with indicated dose of Kp-10 for 1 h (c) and quantification of protein levels (d). e–i BMMs isolated from eight-week-old WT and Gpr54^−/− mice were stimulated with M-CSF (10 ng/ml) and RANKL (50 ng/ml) for 5–7 days. Representative TRAP staining images are shown. Scale bar, 250 µm (e) and the number of osteoclasts/well was counted (f). Phalloidin staining of F-actin ring is shown. Scale bar, 250 µm, 50 µm (g), the area (h) and nuclei numbers (i) per actin ring were counted. j, k BMMs isolated from eight-week-old WT and Gpr54^−/− mice were cultured in vitro on dentin slices, and after incubation with M-CSF (10 ng/ml) and RANKL (50 ng/ml) for 5–7 days, the pits formed by osteoclast absorption activity were scanned by confocal microscopy (x, y, and z sections). Scale bar, 125 µm (j), and pits depth were quantified by confocal microscopy (k). Data represent means ± SEM. P values were determined by two-way ANOVA analysis (b), one-way ANOVA analysis (d, f, k), or two-tailed Student’s t-test (h, i), Representative results were obtained from at least three independent experiments. Source data are provided as a Source Data file.
(§1) Whole-cell proteins were extracted using 1x RIPA buffer (25 mM Tris, pH7.5, 150 mM NaCl, 0.5% Sodium deoxycholate, 1% Triton-X-100) supplemented with protease inhibitors (Complete Mini, Roche) and phosphatase inhibitors (phosphatase inhibitor cocktail set I and II, Calbiochem). Immunoprecipitation and immunoblotting with indicated antibodies were performed as described in Supplementary Table 1. Image Jsoftware (V1.52) was used for quantification analysis. Uncropped and unprocessed blots are presented in the Supplementary Information file.
Supplementary Fig. 1 a, b IB analysis of whole cell lysates (WCL) derived from BMMs isolated from eight-week-old wild-type (WT) and Gpr54 ^-/- mice. BMMs were starved in serum-free α-MEM for 4 hours and then treated with indicated doses of Kp-10 for 1 hour and followed by the addition of 50 ng/mL M-CSF, 100 ng/mL RANKL for another 30 minutes (a) and quantification of protein levels (b). c, d Elisa assay showing Kisspeptins derived from the process of osteoblast or osteoclast differentiation in vitro. Kisspeptins normalization was based on the same number of MSCs, BMMs which were seeded on the plates before differentiation stimulation (c), and serum Kisspeptins from Sham (n=8) and OVX (n=7) mice (d). Representative results were obtained from at least three independent experiments. Error bars are ± SEM. P-values were determined by one-way ANOVA analysis (a) or two-tailed Student’s t-test (b). *P <0.05, ***P <0.001, ****P <0.0001. Representative results were obtained from at least three independent experiments. Source data are provided as a Source Data file.

In assay [3] the test system is osteoclast bone resorption. In words: pit assay (bone resorption). The format is cell-based, mouse. The settings on record: for bone resorption: dentin slices, 5–7 days.
The test system of assay [4] is DUSP18 / GPR54 interaction. Briefly: Co-IP: interaction of DUSP18 with GPR54 in transfected 293T cells. The format is cell-based, human. To be noted: 293T cells transfected with DUSP18-HA and GPR54-Flag, Kp-10 (10 nM) 20 min. The procedure: Data represent means ± SEM. P values were determined by one-way ANOVA analysis (b, c, e, g, i, k). Representative results were obtained from at least three independent experiments. Source data are provided as a Source Data file.
as §1
Supplementary Fig. 6 a, b IB and quantification of protein levels analysis. […] Error bars are ± SEM. P-values were determined by two-tailed Student’s t-test (b, e) or by one-way ANOVA analysis (h, j). *P <0.05, **P <0.01, ***P <0.001, ****P <0.0001. Representative results were observed from at least three independent experiments. Source data are provided as a Source Data file.

As to Kisspeptin-10 [Kp-10], the “heterotrimer complex formation with DUSP18 (C104S)” value in assay [1] was “but not when the catalytic center of DUSP18 was killed”. Further, the “Src phosphorylation, 10 nM” value in assay [2] (10 nM Kp-10) is recorded as “more obviously blocked”. Besides, the Src phosphorylation entry is reported as “failed to do so” in assay [2] (Dusp18-depleted BMMs) and “blocked Src phosphorylation” in assay [2] (WT pre-osteoclasts/BMMs (Dusp18 experiment)). In addition, the entries for the “phosphorylation of Src (Y416)” value in assay [2] (Gpr54 WT osteoclasts/BMMs) and in assay [2] (Gpr54 knockout osteoclasts/BMMs) were “effectively reduced the phosphorylation of Src (Y416)” and “failed to inhibit Src (Y416) phosphorylation”, respectively. Besides, the “phosphorylation of Src” value is given as “failed to have a significant effect” in assay [2] (Gq/11 KO BMMs) and “inhibited the phosphorylation of Src” in assay [2] (WT BMMs (Gq/11 experiment)). For the same substance, the “bone resorption (pit formation, pit depth)” value in assay [3] (Dusp18 WT osteoclasts) is reported as “bone resorption was suppressed”. In addition, the bone resorption entry in assay [3] (Gpr54-WT osteoclasts) is “suppressed bone resorption”; in assay [3] (Gpr54 knockout osteoclasts), “did not have a significant effect”. The “interaction of DUSP18 with GPR54” value in assay [4] is “dose-dependently induced the interaction”.
